Source: paper PMC9942120 (iScience, 2023)

How the values were obtained:
[1] = target: T1, TK1 (Homo sapiens, UniProt P04183); assay: direct LC-MS/MS profiling of modified tryptic peptides; format: cell-based; conditions: covalent at Cys3; H358 cells, […] AMG510, […] h (methods print […] h)
T1 sequence (P04183 2-234): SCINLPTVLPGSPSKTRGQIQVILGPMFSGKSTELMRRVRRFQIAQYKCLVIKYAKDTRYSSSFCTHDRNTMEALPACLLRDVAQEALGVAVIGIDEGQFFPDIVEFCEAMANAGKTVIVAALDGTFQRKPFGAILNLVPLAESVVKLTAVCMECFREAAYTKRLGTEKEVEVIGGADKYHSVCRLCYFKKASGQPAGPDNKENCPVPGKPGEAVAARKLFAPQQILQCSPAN

[2] = target: T2, HMOX2 (Homo sapiens, UniProt P30519); assay: as above; format: cell-based; conditions: covalent at Cys282; H358 cells, […] AMG510, […] h (methods print […] h)
T2 sequence (P30519 2-316): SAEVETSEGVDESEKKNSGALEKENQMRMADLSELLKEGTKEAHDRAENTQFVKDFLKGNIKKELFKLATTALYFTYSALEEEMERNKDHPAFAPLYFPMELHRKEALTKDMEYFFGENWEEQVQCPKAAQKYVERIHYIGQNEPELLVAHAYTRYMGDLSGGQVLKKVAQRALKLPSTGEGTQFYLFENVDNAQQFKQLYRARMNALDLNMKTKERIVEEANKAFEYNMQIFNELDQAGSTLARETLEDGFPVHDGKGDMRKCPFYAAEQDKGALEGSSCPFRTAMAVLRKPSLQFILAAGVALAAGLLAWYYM

[3] = target: Ank2; ANK2 (Mus musculus, UniProt Q8C8R3); assay: anti-AMG510 peptide IP and LC-MS/MS of heart tissue; conditions: covalent at Cys3737; mice dosed orally […] mg/kg/day for […] days
[4] = target: T3, UBE2O (Homo sapiens, UniProt Q9C0C9); assay: direct LC-MS/MS profiling of modified tryptic peptides; format: cell-based; conditions: covalent at Cys370; H358 cells, […] AMG510, […] h (methods print […] h)
T3 sequence (Q9C0C9 1-1292): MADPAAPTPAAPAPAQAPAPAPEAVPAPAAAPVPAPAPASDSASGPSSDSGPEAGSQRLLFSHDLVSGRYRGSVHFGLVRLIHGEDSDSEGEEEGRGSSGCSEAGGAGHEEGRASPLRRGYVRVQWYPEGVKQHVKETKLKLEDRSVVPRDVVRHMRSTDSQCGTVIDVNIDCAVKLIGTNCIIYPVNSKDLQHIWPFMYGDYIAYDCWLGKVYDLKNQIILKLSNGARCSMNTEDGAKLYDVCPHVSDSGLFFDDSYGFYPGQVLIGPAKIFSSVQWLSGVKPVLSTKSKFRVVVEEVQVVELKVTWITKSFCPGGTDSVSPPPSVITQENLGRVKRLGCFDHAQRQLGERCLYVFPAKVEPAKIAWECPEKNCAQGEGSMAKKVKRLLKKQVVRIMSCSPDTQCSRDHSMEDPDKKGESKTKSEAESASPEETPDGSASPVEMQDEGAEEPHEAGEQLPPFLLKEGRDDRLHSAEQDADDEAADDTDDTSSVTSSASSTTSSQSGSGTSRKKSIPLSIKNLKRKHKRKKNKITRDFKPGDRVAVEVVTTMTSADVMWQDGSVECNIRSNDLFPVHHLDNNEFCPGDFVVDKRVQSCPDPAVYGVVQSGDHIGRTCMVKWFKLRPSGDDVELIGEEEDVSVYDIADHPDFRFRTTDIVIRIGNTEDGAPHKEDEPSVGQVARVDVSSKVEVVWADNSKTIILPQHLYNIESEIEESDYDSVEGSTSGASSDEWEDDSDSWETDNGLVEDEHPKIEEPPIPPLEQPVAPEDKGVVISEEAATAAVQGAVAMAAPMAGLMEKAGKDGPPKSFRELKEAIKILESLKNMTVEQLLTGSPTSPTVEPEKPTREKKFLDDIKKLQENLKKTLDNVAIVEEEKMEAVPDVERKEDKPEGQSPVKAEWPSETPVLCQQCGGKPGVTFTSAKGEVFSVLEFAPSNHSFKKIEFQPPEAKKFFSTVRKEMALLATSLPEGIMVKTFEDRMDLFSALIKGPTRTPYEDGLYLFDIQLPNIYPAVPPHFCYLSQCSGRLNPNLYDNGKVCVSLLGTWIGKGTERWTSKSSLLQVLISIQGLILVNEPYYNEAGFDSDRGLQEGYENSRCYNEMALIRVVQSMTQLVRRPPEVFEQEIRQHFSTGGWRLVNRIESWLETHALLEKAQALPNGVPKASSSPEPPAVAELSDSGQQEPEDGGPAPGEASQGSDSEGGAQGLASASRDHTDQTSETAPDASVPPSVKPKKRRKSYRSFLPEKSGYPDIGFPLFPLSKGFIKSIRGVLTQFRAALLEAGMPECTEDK

[5] = target: T4, ALDOA (Homo sapiens, UniProt P04075); assay: LC-MS/MS site mapping; format: cell-based; conditions: covalent at Cys339; H358 cells treated with AMG510
T4 sequence (P04075 2-364): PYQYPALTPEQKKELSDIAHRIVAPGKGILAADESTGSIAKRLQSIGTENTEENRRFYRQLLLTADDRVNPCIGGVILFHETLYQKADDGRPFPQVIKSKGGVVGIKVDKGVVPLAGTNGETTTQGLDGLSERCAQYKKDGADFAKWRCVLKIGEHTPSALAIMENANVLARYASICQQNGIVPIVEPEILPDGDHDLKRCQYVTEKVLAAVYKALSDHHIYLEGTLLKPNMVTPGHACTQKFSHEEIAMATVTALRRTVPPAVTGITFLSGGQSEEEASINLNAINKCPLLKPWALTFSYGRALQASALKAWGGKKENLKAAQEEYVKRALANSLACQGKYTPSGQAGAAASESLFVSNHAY

[6] = target: KRT4 (Homo sapiens, UniProt P19013); assay: direct LC-MS/MS profiling of modified tryptic peptides; format: cell-based; conditions: covalent at Cys42; H358 cells, […] AMG510, […] h (methods print […] h)
[7] = target: HSPD1 (Homo sapiens, UniProt P10809); assay: as above; format: cell-based; conditions: covalent at Cys237; H358 cells, […] AMG510, […] h (methods print […] h)
[8] = target: T4, ALDOA; assay: colorimetric aldolase activity kit; format: cell-based; conditions: covalent; […] AMG510 or vehicle, […] min

Sequence of Ank2; ANK2 (Q8C8R3 whole entry): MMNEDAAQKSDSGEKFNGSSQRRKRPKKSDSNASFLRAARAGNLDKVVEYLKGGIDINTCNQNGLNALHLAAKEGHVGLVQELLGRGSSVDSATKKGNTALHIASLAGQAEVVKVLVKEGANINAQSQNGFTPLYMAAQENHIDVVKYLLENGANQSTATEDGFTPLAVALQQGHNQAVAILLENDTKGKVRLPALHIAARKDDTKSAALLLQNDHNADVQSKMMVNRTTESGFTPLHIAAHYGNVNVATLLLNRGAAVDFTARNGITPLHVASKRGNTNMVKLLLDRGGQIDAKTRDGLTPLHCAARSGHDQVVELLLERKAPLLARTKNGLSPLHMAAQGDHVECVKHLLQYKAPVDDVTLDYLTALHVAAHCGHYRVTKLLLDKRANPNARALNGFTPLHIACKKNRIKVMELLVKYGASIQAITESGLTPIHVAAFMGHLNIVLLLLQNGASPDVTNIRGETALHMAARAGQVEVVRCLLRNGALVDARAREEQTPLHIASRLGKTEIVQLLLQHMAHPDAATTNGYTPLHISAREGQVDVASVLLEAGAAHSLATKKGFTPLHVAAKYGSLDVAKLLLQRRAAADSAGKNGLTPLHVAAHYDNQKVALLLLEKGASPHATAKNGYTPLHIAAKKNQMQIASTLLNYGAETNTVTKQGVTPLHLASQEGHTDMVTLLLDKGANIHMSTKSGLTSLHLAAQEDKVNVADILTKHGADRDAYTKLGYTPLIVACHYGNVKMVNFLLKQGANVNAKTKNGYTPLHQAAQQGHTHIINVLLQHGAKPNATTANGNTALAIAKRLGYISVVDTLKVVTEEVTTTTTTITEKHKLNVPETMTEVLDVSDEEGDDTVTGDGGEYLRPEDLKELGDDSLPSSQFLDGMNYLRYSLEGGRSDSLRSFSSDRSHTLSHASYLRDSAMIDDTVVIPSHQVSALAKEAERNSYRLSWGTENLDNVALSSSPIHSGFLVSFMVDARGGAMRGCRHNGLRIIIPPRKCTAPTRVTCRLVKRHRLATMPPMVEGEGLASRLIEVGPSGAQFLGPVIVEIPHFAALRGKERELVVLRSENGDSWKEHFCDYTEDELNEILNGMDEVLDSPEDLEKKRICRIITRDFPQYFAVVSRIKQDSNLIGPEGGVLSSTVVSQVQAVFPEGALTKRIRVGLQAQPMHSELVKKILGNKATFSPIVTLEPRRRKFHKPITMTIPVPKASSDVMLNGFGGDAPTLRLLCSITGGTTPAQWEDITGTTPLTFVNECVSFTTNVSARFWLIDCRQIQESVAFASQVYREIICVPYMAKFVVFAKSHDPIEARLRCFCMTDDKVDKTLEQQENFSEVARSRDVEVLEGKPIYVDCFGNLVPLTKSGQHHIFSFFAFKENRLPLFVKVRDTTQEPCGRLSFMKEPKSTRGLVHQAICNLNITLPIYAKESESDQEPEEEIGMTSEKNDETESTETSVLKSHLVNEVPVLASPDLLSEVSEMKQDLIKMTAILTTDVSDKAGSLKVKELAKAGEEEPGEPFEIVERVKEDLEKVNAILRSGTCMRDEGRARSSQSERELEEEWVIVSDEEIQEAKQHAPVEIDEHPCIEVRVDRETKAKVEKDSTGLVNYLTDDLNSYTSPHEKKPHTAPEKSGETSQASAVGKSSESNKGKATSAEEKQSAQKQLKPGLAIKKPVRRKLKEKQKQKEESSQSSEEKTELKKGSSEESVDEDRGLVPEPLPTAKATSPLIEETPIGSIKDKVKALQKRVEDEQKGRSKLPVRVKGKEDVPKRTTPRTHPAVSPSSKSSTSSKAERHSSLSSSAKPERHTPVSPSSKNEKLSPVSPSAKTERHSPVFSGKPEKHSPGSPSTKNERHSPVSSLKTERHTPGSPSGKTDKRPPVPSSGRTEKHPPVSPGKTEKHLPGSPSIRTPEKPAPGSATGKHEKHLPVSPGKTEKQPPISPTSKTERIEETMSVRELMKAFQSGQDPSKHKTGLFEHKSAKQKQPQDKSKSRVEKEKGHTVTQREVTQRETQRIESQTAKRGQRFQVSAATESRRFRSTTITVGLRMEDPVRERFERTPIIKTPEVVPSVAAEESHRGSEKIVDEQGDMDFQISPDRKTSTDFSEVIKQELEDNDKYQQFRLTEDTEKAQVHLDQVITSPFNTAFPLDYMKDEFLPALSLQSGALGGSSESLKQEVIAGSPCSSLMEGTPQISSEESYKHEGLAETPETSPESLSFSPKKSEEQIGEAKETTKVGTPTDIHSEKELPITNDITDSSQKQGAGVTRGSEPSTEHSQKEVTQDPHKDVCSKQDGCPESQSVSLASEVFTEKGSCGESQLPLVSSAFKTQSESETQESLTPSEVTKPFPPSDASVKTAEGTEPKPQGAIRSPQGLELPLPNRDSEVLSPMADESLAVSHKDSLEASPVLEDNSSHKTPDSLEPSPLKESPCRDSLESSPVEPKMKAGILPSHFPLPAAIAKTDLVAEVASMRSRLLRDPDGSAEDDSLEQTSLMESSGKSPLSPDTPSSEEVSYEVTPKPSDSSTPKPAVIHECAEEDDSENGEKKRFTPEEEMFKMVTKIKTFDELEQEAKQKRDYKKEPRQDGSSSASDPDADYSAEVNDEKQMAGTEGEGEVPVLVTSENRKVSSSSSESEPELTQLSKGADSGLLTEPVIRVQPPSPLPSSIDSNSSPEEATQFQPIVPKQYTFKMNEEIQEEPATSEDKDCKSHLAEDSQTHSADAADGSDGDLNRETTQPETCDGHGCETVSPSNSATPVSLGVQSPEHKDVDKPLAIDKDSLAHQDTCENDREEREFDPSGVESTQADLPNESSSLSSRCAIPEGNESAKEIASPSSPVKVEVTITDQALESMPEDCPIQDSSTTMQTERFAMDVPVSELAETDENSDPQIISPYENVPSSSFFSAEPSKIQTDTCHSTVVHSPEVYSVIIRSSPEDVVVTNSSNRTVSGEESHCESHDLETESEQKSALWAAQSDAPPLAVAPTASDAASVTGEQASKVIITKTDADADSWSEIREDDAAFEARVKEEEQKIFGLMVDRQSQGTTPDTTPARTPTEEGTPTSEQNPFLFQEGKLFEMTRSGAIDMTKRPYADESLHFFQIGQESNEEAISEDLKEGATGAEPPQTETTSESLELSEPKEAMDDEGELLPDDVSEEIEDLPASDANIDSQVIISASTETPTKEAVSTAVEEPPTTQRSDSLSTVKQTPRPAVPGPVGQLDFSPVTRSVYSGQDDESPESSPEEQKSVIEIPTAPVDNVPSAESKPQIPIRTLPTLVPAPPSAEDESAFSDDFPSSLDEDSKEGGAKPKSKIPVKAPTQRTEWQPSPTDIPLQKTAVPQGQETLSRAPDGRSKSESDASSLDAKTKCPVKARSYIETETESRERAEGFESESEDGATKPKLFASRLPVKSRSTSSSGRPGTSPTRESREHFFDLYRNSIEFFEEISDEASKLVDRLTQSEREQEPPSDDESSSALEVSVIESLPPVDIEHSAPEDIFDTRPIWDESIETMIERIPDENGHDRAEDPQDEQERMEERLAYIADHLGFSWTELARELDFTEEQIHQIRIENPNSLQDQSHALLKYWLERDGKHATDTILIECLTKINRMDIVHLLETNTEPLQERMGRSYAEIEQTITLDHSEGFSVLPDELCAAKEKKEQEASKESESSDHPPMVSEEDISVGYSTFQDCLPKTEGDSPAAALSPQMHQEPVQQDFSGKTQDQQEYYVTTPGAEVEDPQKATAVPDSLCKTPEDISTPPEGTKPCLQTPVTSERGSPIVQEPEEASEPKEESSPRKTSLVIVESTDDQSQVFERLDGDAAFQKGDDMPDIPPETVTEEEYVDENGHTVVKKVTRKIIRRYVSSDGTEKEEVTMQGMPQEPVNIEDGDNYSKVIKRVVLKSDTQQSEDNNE
Sequence of KRT4 (P19013 whole entry): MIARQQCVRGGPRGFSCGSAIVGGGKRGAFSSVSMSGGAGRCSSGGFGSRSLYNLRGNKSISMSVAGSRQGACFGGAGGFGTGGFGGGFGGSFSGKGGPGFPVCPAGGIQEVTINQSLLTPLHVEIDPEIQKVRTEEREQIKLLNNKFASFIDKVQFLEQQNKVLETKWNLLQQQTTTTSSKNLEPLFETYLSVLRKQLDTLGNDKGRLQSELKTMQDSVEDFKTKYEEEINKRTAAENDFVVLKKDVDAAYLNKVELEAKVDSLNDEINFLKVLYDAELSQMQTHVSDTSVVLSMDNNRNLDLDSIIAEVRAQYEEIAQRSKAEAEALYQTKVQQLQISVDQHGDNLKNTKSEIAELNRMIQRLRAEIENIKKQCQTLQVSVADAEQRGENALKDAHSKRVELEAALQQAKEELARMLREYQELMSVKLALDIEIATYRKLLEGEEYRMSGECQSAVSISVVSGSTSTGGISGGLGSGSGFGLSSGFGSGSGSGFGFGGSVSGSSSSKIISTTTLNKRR
Sequence of HSPD1 (P10809 27-573): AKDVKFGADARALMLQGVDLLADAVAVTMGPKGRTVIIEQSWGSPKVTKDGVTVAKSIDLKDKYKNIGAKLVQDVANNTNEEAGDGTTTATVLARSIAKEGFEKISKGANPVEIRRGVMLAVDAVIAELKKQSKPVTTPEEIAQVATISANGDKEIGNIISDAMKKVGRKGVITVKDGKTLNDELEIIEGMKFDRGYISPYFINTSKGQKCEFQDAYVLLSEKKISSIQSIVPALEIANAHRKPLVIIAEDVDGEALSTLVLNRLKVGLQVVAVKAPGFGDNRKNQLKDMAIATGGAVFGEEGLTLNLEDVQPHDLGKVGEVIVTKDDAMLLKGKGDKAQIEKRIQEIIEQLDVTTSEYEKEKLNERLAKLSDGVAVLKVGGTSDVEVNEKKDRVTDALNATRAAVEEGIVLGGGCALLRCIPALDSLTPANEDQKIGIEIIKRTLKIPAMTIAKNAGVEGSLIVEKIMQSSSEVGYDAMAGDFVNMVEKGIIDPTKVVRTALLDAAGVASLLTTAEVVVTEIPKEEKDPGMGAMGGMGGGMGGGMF

## C=CC(=O)N1CCN(c2nc(=O)n(-c3c(C)ccnc3C(C)C)c3nc(-c4c(O)cccc4F)c(F)cc23)[C@@H](C)C1 [AMG510]
[1]
  direct LC-MS/MS profiling of modified tryptic peptides: They included enzymes (PLOD3 C691, RPE C5, SPTLC2 C99, UBE2O C370, and TK1 C3)
[2]
  direct LC-MS/MS profiling of modified tryptic peptides: off-targets that were identified in previous studies (RTN4 C1101 and HMOX2 C282)
[3]
  anti-AMG510 peptide IP and LC-MS/MS of heart tissue: Ank2 was modified by AMG510 at Cys3737 in the mouse heart tissue
[4]
  direct LC-MS/MS profiling of modified tryptic peptides: They included enzymes (PLOD3 C691, RPE C5, SPTLC2 C99, UBE2O C370, and TK1 C3)
[5]
  LC-MS/MS site mapping: We first confirmed that Cys339 was also endogenously modified by AMG510 in H358 cells
[6]
  direct LC-MS/MS profiling of modified tryptic peptides: differentiating epithelia cell markers (KRT4 C42)
[7]
  direct LC-MS/MS profiling of modified tryptic peptides: protein folding accessory protein (HSPD1 C237)
[8]
  aldolase activity: The ALDOA enzyme activity assay showed that the activity was indeed inhibited by the AMG510
